A word on the inhibition: it is the relative decrease from the control value, in per cent. By IC50 is commonly meant the midpoint of a concentration-inhibition curve. A high value points to weaker potency in that assay.

The subject of the first assay is PCSK9 expression. The assay can be described thus: Quantitative PCR (qPCR) inhibition assay, PCSK9 mRNA expression in Hep G2 cells. The assay is classed as cell-based. The settings on record: Homo sapiens; HepG2 cells, 320 nM, 24 hours incubation, mRNA by qPCR; read-out: PCSK9 Inhibition Percentage (%) at 320 nM. Here is the method:
Hep G2 cells were obtained from ATCC and grown in DMEM supplemented with 5% FBS in a 5% CO2 incubator at 37° C. For the assay the cells were plated in 24 well plates at a concentration of 100,000 cells/well in DMEM with 5% FBS. The compounds were serially diluted in DMSO from 0.1 to 20 mM and then diluted 1:1000 in growth medium. The medium was added to the cells in duplicate 24 hours after plating. After 24 hours of incubation the RNA was isolated from the cells using the illustra RNAspin Mini kit (GE Healthcare). For the quantitative PCR the RNA was analyzed using the Power SYBR® Green PCR Master Mix (Applied Biosystems) and gene specific primers. The reaction was run on a StepOnePlus Real-Time PCR System (Thermo Fisher Scientific) and the instrument software was used to determine the Ct values. The fold change of mRNA expression relative to the vehicle control was calculated. Primer sequence was as follows: PCSK9, 5′-[…]-3′/5′-[…]-3′.
(§1) All data for Biological Examples 1a and 1b were measured in HepG2 cells. % inhibition of SCD1 expression, % inhibition of PCSK9 expression, and PCSK9 IC50 data are provided in Table 1. NA means the compound was not active at the concentration tested.
On the technique in general: Real-time PCR tracks product formation cycle by cycle.
On to `CCCn1cc(-n2cc(-c3ccc(OCC4(CO)COC4)nc3C)cn2)ccc1=O` [Example 15], for which the inhibition at 0.32 µM was at least 40%.
The same measure, in the same setting: the figure for `CCCn1cc(-n2cc(-c3ccc(OCC(C)C)cc3Cl)cn2)ccc1=O` [Example 8] is at least 40%.
Still for that read-out and setting: the figure for `CCCn1cc(-n2cc(-c3ccc(OCC4CC4)c(C)c3)cn2)ccc1=O` [Example 29] is under 10%; for `CCCn1cc(-n2cc(-c3ccc(OCC4CC4)cc3Cl)cn2)ccc1=O` [Example 26] it is at least 40%.
The same measure, in the same setting: the figure for `CCCn1cc(-n2cc(-c3ccc(S(=O)(=O)C(C)C)nc3C)cn2)ccc1=O` [Example 52, 5-(4-(6-(isopropylsulfonyl)-2-methylpyridin-3-yl)-1H-pyrazol-1-yl)-1-propylpyridin-2(1H)-one] is under 10%.
As to `CCCn1cc(-n2cc(-c3ccc(OCC(F)(F)CO)nc3C)cn2)ccc1=O` [Example 82], the inhibition at 0.32 µM is at least 40%.
`CCCn1cc(-n2cc(-c3ccc(OCC4(CO)CC4)cc3C)cn2)ccc1=O` [Example 81]: the inhibition at 0.32 µM was at least 40%.
Same read-out and setting: the figure for `CCCn1cc(-n2cc(-c3ccc(OCC4CC4)c(F)c3)cn2)ccc1=O` [Example 27] is under 10%; for `CCCn1cc(-n2cc(-c3ccc(OC(CC)CC)cc3Cl)cn2)ccc1=O` [Example 38] it is at least 40%.
For `CCCn1cc(-n2cc(-c3ccc(OCC4CC4)cc3F)cn2)ccc1=O` [Example 30], the inhibition at 0.32 µM is 10 to 40%.
Turning to `CCCn1cc(-n2cc(-c3ccc(OCC(C)C)cc3F)cn2)ccc1=O` [Example 31], the inhibition at 0.32 µM lay within 10 to 40%.
In the case of `CCCn1cc(-n2cc(-c3cc(F)c(OCC4CC4)c(F)c3)cn2)ccc1=O` [Example 28], the inhibition at 0.32 µM is under 10%.
Same read-out and setting: the figure for `CCCn1cc(-n2cc(-c3ccc(OCC4(CO)CCC4)nc3C)cn2)ccc1=O` [Example 16] is at least 40%.
Same read-out and setting: the figure for `CCCn1cc(-n2cc(-c3cnc(S(=O)(=O)C(C)C)nc3)cn2)ccc1=O` [Example 54, 5-(4-(2-(isopropylsulfonyl)pyrimidin-5-yl)-1H-pyrazol-1-yl)-1-propylpyridin-2(1H)-one] is under 10%; for `CCCn1cc(-n2cc(-c3ccc(OCC4(CO)CCC4)cc3Cl)cn2)ccc1=O` [Example 49, 5-(4-(2-chloro-4-((1-(hydroxymethyl)cyclobutyl)methoxy)phenyl)-1H-pyrazol-1-yl)-1-propylpyridin-2(1H)-one] it is at least 40%; for `CCCn1cc(-n2cc(-c3ccc(OCC4(CO)CC4)nc3C)cn2)ccc1=O` [Example 13] it is at least 40%.
For `CCCn1cc(-n2cc(-c3ccc(S(=O)(=O)C4CCC4)cc3C)cn2)ccc1=O` [Example 78], the inhibition at 0.32 µM is at least 40%.
Take `CCCn1cc(-n2cc(-c3cnc(OC(C)C)nc3)cn2)ccc1=O` [Example 53, 5-(4-(2-isopropoxypyrimidin-5-yl)-1H-pyrazol-1-yl)-1-propylpyridin-2(1H)-one]: the inhibition at 0.32 µM was under 10%.
Take `CCCn1cc(-n2cc(-c3ccc(OCC(C)(C)CO)nc3C)cn2)ccc1=O` [Example 14]: the inhibition at 0.32 µM is at least 40%.
Consider `CCCn1cc(-n2cc(-c3ccc(OCC4(CO)COC4)cc3Cl)cn2)ccc1=O` [Example 39], for which the inhibition at 0.32 µM is at least 40%.
As for `CCCn1cc(-n2cc(-c3ccc(S(=O)(=O)C4CC(F)(F)C4)cc3C)cn2)ccc1=O` [Example 80], the inhibition at 0.32 µM was 10 to 40%.
For `CCCn1cc(-n2cc(-c3ccc(S(=O)(=O)C4CCC(F)(F)CC4)cc3C)cn2)ccc1=O` [Example 79], the inhibition at 0.32 µM was 10 to 40%.

The same assay, now with this note: Homo sapiens; HepG2 cells, 24 hours incubation, mRNA by qPCR.
For the compound `CCCn1cc(-n2cc(-c3ccc(OCC4(CO)COC4)nc3C)cn2)ccc1=O` [Example 15], the IC50 was at most 150 nM.
In turn, `CCCn1cc(-n2cc(-c3ccc(OCC(C)C)cc3Cl)cn2)ccc1=O` [Example 8] came in with an IC50 of 150 to 600 nM.
Still for that read-out and setting: the figure for `CCCn1cc(-n2cc(-c3ccc(OCC4(CO)CC4)cc3C)cn2)ccc1=O` [Example 81] is at most 150 nM; for `CCCn1cc(-n2cc(-c3ccc(OCC4(CO)CCC4)nc3C)cn2)ccc1=O` [Example 16] it is at most 150 nM.
For `CCCn1cc(-n2cc(-c3ccc(OCC4(CO)CCC4)cc3Cl)cn2)ccc1=O` [Example 49, 5-(4-(2-chloro-4-((1-(hydroxymethyl)cyclobutyl)methoxy)phenyl)-1H-pyrazol-1-yl)-1-propylpyridin-2(1H)-one], the IC50 was at most 150 nM.
As to `CCCn1cc(-n2cc(-c3ccc(OCC4(CO)CC4)nc3C)cn2)ccc1=O` [Example 13], the IC50 is at most 150 nM.
Consider `CCCn1cc(-n2cc(-c3ccc(S(=O)(=O)C4CCC4)cc3C)cn2)ccc1=O` [Example 78], for which the IC50 is at most 150 nM.
Still for that read-out and setting: the figure for `CCCn1cc(-n2cc(-c3ccc(OCC(C)(C)CO)nc3C)cn2)ccc1=O` [Example 14] is at most 150 nM; for `CCCn1cc(-n2cc(-c3ccc(OCC4(CO)COC4)cc3Cl)cn2)ccc1=O` [Example 39] it is 150 to 600 nM.

The test system of another assay is SCD1 expression. Nature of the assay: Quantitative PCR (qPCR) inhibition assay, SCD1 mRNA expression in Hep G2 cells. The assay is classed as cell-based. The note with it: Homo sapiens, HepG2 cells, 24 hours incubation, mRNA by qPCR, read-out: SCD1 Inhibition Percentage (%) at 1 μM. As to the method:
Hep G2 cells were obtained from ATCC and grown in DMEM supplemented with 10% FBS in a 5% CO2 incubator at 37° C. For the assay the cells were plated in 96 well plates at a concentration of 75,000 cells/well in DMEM with 5% FBS. The compounds were serially diluted in DMSO from 30 to 0.1 mM and then diluted 1:1000 in growth medium. The medium was added to the cells in duplicate 24 hours after plating. After 24 hours of incubation the RNA was isolated from the cells using the RNAqueous®-96 Total RNA Isolation Kit (Ambion). The eluted RNA was reverse transcribed using the Cells-to-Ct kit reverse transcriptase (Ambion). For the quantitative PCR the cDNA was analyzed using the Power SYBR® Green PCR Master Mix (Applied Biosystems) and gene specific primers. The reaction was run on an ABI7300 thermocycler and the instrument software was used to determine the Ct values. The fold change of mRNA expression relative to the vehicle control was calculated using the method by Livak. Primer sequence was as follows: SCD1, 5′-[…]-3′/5′-[…]-3′.
as §1
Turning to `CCCn1cc(-n2cc(-c3ccc(OC(C)CO)cc3)cn2)ccc1=O` (stereo not drawn) [Example 42], the inhibition at 1 µM lay in the range of 10 to 40%.
As for `CCCn1cc(-n2cc(-c3ccc(OC)cc3Cl)cn2)ccc1=O` [Example 45, 5-(4-(2-chloro-4-methoxyphenyl)-1H-pyrazol-1-yl)-1-propylpyridin-2(1H)-one], the inhibition at 1 µM is 10 to 40%.
On to `CCCn1cc(-n2cc(-c3ccc(O[C@@H](C)CC)cc3Cl)cn2)ccc1=O` [Example 35], for which the inhibition at 1 µM is at least 40%.
On the same count and under the same terms, the figure for `CCCn1cc(-n2cc(-c3ccc(S(=O)(=O)C(C)C)cc3F)cn2)ccc1=O` [Example 21] is at least 40%.
Still for that read-out and setting: the figure for `CCCn1cc(-n2cc(-c3ccc(OC(C)C4CC4)cc3Cl)cn2)ccc1=O` (stereo not drawn) [Example 34] is at least 40%; for `CCCn1cc(-n2cc(-c3ccc(OC(C)C4CC4)nc3C)cn2)ccc1=O` (stereo not drawn) [Example 11] it is at least 40%.
Turning to `CCCn1cc(-n2cc(-c3ccc(OC(C)CCO)cc3Cl)cn2)ccc1=O` (stereo not drawn) [Example 47, 5-(4-(2-chloro-4-((4-hydroxybutan-2-yl)oxy)phenyl)-1H-pyrazol-1-yl)-1-propylpyridin-2(1H)-one], the inhibition at 1 µM was at least 40%.
The same measure, in the same setting: the figure for `CCCn1cc(-n2cc(-c3ccc(OC4CCCC4)nc3C)cn2)ccc1=O` [Example 1, 5-(4-(6-(cyclopentyloxy)-2-methylpyridin-3-yl)-1H-pyrazol-1-yl)-1-propylpyridin-2(1H)-one] is at least 40%; for `CCCn1cc(-n2cc(-c3ccc(OCCCO)cc3Cl)cn2)ccc1=O` [Example 33] it is at least 40%.
On the same count and under the same terms, the figure for `CCCn1cc(-n2cc(-c3ccc(OC(C)CO)cc3Cl)cn2)ccc1=O` (stereo not drawn) [Example 37] is at least 40%; for `CCCn1cc(-n2cc(-c3ccc(S(=O)(=O)CC)cc3Cl)cn2)ccc1=O` [Example 55, 5-(4-(2-chloro-4-(ethylsulfonyl)phenyl)-1H-pyrazol-1-yl)-1-propylpyridin-2(1H)-one] it is at least 40%.
Turning to `CCCn1cc(-n2cc(-c3ccc(OCC(C)(C)CO)cc3Cl)cn2)ccc1=O` [Example 48, 5-(4-(2-chloro-4-(3-hydroxy-2,2-dimethylpropoxy)phenyl)-1H-pyrazol-1-yl)-1-propylpyridin-2(1H)-one], the inhibition at 1 µM is at least 40%.
Still for that read-out and setting: the figure for `CCCn1cc(-n2cc(-c3ccc(S(=O)(=O)C(CC)CC)cc3Cl)cn2)ccc1=O` [Example 20] is at least 40%; for `CCCn1cc(-n2cc(-c3ccc(OC4CCC4)nc3C)cn2)ccc1=O` [Example 7] it is at least 40%; for `CCCn1cc(-n2cc(-c3ccc(O[C@H](C)CC)cc3)cn2)ccc1=O` [Example 41] it is at least 40%.
Same read-out and setting: the figure for `CCCn1cc(-n2cc(-c3ccc(O[C@H](C)CC)cc3Cl)cn2)ccc1=O` [Example 36] is at least 40%; for `CCCn1cc(-n2cc(-c3ccc(S(=O)(=O)CC4CC4)cc3Cl)cn2)ccc1=O` [Example 19] it is at least 40%.
On the same count and under the same terms, the figure for `CCCn1cc(-n2cc(-c3ccc(OC(C)C)cc3Cl)cn2)ccc1=O` [Example 40] is 10 to 40%; for `CCCn1cc(-n2cc(-c3ccc(OC)cc3)cn2)ccc1=O` [Example 46, 5-(4-(4-methoxyphenyl)-1H-pyrazol-1-yl)-1-propylpyridin-2(1H)-one] it is 10 to 40%.
On to `CCCn1cc(-n2cc(-c3ccc(S(=O)(=O)CC)cc3)cn2)ccc1=O` [Example 51, 5-(4-(4-(ethylsulfonyl)phenyl)-1H-pyrazol-1-yl)-1-propylpyridin-2(1H)-one], for which the inhibition at 1 µM was at least 40%.
Take `CCCn1cc(-n2cc(-c3ccc(OC4CC4)nc3C)cn2)ccc1=O` [Example 12]: the inhibition at 1 µM lay within 10 to 40%.
As to `CCCn1cc(-n2cc(-c3ccc(OC(C)C)nc3C)cn2)ccc1=O` [Example 2], the inhibition at 1 µM is at least 40%.
Turning to `CCCn1cc(-n2cc(-c3ccc(S(=O)(=O)C(C)C)cc3)cn2)ccc1=O` [Example 25], the inhibition at 1 µM is at least 40%.
For `CCCn1cc(-n2cc(-c3ccc(OC(F)(F)F)cc3Cl)cn2)ccc1=O` [Example 4], the inhibition at 1 µM is at least 40%.
For `CCCn1cc(-n2cc(-c3ccc(OCC4(CO)CC4)cc3Cl)cn2)ccc1=O` [Example 32], the inhibition at 1 µM was at least 40%.
Same read-out and setting: the figure for `CCCn1cc(-n2cc(-c3ccc(S(=O)(=O)C4CC4)cc3)cn2)ccc1=O` [Example 64] is at least 40%.

The values above are taken from patent publication US11339142B2, “Di-substituted pyrazole compounds for the treatment of diseases” (FGH BIOTECH, INC., priority 2016, dated 2022).
